Laboratory results as given in the NIST ThermoML archive (doi:10.1016/j.jct.2009.11.018).

Assay: xn = mol fraction of the nth substance listed
Settings: 298.15 K, 101 kPa, Liquid, Pycnometric method

CC(O)C(C)O (centres undefined) [2,3-butanediol] + O
Settings	mass density [kg/m3]
x1 = 0.0618	1014.1
x1 = 0.1379	1021.5
x1 = 0.1796	1023.1
x1 = 0.2179	1023.2
x1 = 0.2417	1022.7
x1 = 0.2696	1022
x1 = 0.3027	1021
x1 = 0.3426	1019.5
x1 = 0.3913	1017.6
x1 = 0.4524	1015.2
x1 = 0.5308	1012.2
x1 = 0.6352	1008.4
x1 = 0.7805	1004.1
x1 = 0.9001	1000.9

CCC(O)CO (centres undefined) [1,2-butanediol] + O
Settings	mass density [kg/m3]
x1 = 0.0625	1009.5
x1 = 0.1347	1015.8
x1 = 0.2153	1016.4
x1 = 0.3019	1014.2
x1 = 0.3915	1011.6
x1 = 0.4804	1009.2
x1 = 0.5651	1006.9
x1 = 0.6428	1005.2
x1 = 0.7115	1003.6
x1 = 0.7703	1002.4
x1 = 0.8195	1001.4
x1 = 0.8595	1000.7
x1 = 0.8916	1000.2
x1 = 0.9244	999.9

CC(O)CCO (centres undefined) [1,3-butanediol] + O
Settings	mass density [kg/m3]
x1 = 0.0625	1008.2
x1 = 0.1347	1015.9
x1 = 0.2153	1019.2
x1 = 0.3019	1018.8
x1 = 0.3915	1016.8
x1 = 0.4804	1014.4
x1 = 0.5651	1012.2
x1 = 0.6428	1009.9
x1 = 0.7115	1007.9
x1 = 0.7703	1006.2
x1 = 0.8195	1004.8
x1 = 0.8595	1003.8
x1 = 0.8916	1003
x1 = 0.9244	1002.2

CC(O)CO (centres undefined) [1,2-propanediol] + O
Settings	mass density [kg/m3]
x1 = 0.0731	1016.4
x1 = 0.1555	1031.1
x1 = 0.2449	1037.7
x1 = 0.3384	1039.6
x1 = 0.4321	1039.8
x1 = 0.5223	1039
x1 = 0.6058	1038
x1 = 0.6803	1036.8
x1 = 0.7446	1035.9
x1 = 0.7987	1035
x1 = 0.843	1034.5
x1 = 0.8786	1033.8
x1 = 0.9068	1033.4
x1 = 0.9355	1033.1

OCCCO [propan-1,3-diol] + O
Settings	mass density [kg/m3]
x1 = 0.0731	1015.1
x1 = 0.1555	1028.5
x1 = 0.2449	1038.2
x1 = 0.3384	1044.4
x1 = 0.4321	1047.9
x1 = 0.5223	1049.6
x1 = 0.6058	1050.3
x1 = 0.6803	1050.4
x1 = 0.7446	1050.5
x1 = 0.7987	1050.5
x1 = 0.843	1050.4
x1 = 0.8786	1050.4
x1 = 0.9068	1050.2
x1 = 0.9355	1049.9

OCCCCO [1,4-butanediol] + O
Settings	mass density [kg/m3]
x1 = 0.0625	1006.6
x1 = 0.1347	1015
x1 = 0.2153	1019.9
x1 = 0.3019	1021.6
x1 = 0.3915	1021.7
x1 = 0.4804	1021
x1 = 0.5651	1020
x1 = 0.6428	1018.8
x1 = 0.7115	1017.5
x1 = 0.7703	1016.6
x1 = 0.8195	1015.7
x1 = 0.8595	1015.1
x1 = 0.8916	1014.7
x1 = 0.9244	1014.1
